Source: patent US9212189B2, “Fluorescent probes for reactive sulfur species” (THE REGENTS OF THE UNIVERSITY OF CALIFORNIA, priority 2011, dated 2015)

Experiment: Selectivity tests: fluorescence responses to biologically relevant RSS, RNS and ROS
Details: for turn-on response for H2S relative to other RSS, ROS and RNS: 10 μM probe, 20 mM HEPES pH 7.4; for selectivity for H2S over abundant biologically relevant thiols: 5 mM glutathione and 5 mM cysteine (50× the amount of H2S tested); for response to most biologically relevant ROS or RNS: H2O2, tBuOOH, OCl−, NO2−, NO; for fluorescence response to other relevant RSS: thiosulfate, thiocyanate, S-nitroso glutathione, lipoic acid
Procedure: Selectivities for the SF1 and SF2 probes were measured by fluorescence responses (λex=488 nm, λem=525 nm) at 0, 15, 30, 45, and 60 min. All assays were performed in 20 mM HEPES buffered to pH 7.4. • H2S: 10 μL of a 10 mM stock solution of NaSH in degassed HEPES was added to 10 μM SF1 or SF2 in HEPES with 0.2% DMF. • Glutathione and cysteine: 2 μL of 5 mM SF1 or SF2 in DMF was added to 998 μL 5 mM glutathione or cysteine HEPES. • Lipoic acid: 10 μL of a 10 mM stock solution of lipoic acid in HEPES was added to 990 μL of 10 μM SF1 or SF2 in HEPES with 0.2% DMF. • Na2SO3: 10 μL of a 10 mM stock solution of Na2SO3 in HEPES was added to 990 μL of 10 μM SF1 or SF2 in HEPES with 0.2% DMF. • NaS2O3: 10 μL of a 10 mM stock solution of NaS2O3 in HEPES was added to 990 μL of 10 μM SF1 or SF2 in HEPES with 0.2% DMF. • KSCN: 10 μL of a 10 mM stock solution of KSCN in HEPES was added to 990 μL of 10 μM SF1 or SF2 in HEPES with 0.2% DMF. • S-nitrosoglutathione:^S4 10 μL of a 10 mM stock solution of S-nitroso glutathione in HEPES was added to 990 μL of 10 μM SF1 or SF2 in HEPES with 0.2% DMF. • NaNO2: 10 μL of a 10 mM stock solution of NaNO2 in HEPES was added to 990 μL of 10 μM SF1 or SF2 in HEPES with 0.2% DMF. • NO: 5 μL of a 10 mM stock solution of Proli-NONOATE in degassed (by bubbling N2 for ˜30 min) 10 mM NaOH in HEPES was added to 995 μL of a degassed (by bubbling N2 for ˜30 min) solution of 10 μM SF1 or SF2 in HEPES with 0.2% DMF. • H2O2: 10 μL of a 10 mM stock solution of H2O2 in HEPES was added to 990 μL of 10 μM SF1 or SF2 in HEPES with 0.2% DMF. • O2^−: 100 μL of a saturated solution of KO2 in DMSO (˜1 mM) was added to 900 μL of 10 μM SF1 or SF2 in HEPES with 0.2% DMF. • ^tBuOOH: 10 μL of a 10 mM stock solution of tBuOOH in HEPES buffered to was added to 990 μL of 10 μM SF1 or SF2 in HEPES with 0.2% DMF. • HOCl: 10 μL of a 10 mM stock solution of HOCl in HEPES was added to 990 μL of 10 μM SF1 or SF2 in HEPES with 0.2% DMF.
FIG. 5. Fluorescence responses of (a) 10 μM SF1 and (b) 10 μM SF2 to biologically relevant RSS, RNS, and ROS. Bars represent relative responses at 525 nm at 0, 15, 30, 45, and 60 min after addition of RSS, RNS, or ROS. Data shown are for 5 mM glutathione, 5 mM cysteine, and 100 μM for other RSS, RNS, and ROS. Data were acquired in 20 mM HEPES buffered at pH 7.4 with excitation at λex=488 nm. 1. H2S; 2. glutathione; 3. cysteine; 4. lipoic acid; 5. Na2SO3; 6. NaS2O3; 7. KSCN; 8. S-nitroso glutathione; 9. NaNO2; 10. NO; 11. H2O2; 12. O2^−; 13. ^tBuOOH; 14. HOCl.

Structure (SMILES): CC(C)(C)OC(=O)Nc1ccc2c(c1)Oc1cc(N=[N+]=[N-])ccc1C21OC(=O)c2ccccc21 (centres unmarked) [SF1, Sulfidefluor-1]
- selectivity for H2S versus superoxide (O2−): good selectivity
- turn-on response for H2S relative to other RSS, ROS and RNS: selective turn-on response
- selectivity for H2S over abundant biologically relevant thiols: high selectivity
- response to most biologically relevant ROS or RNS: do not respond
- fluorescence response to other relevant RSS (sulfite): negligible or small fluorescence responses

Structure (SMILES): [N-]=[N+]=Nc1ccc2c(c1)Oc1cc(NC(=O)N3CCOCC3)ccc1C21OC(=O)c2ccccc21 (centres unmarked) [SF2, Sulfidefluor-2]
- selectivity for H2S versus superoxide (O2−): good selectivity
- turn-on response for H2S relative to other RSS, ROS and RNS: selective turn-on response
- selectivity for H2S over abundant biologically relevant thiols: high selectivity
- response to most biologically relevant ROS or RNS: do not respond
- fluorescence properties in vitro as compared to SF1 (greater response to H2S, lower background reactivity, better selectivity versus glutathione, sulfite, O2−): more favorable fluorescence properties in vitro
- fluorescence response to other relevant RSS (sulfite): negligible or small fluorescence responses
